Results from publication PMC4721548, “Conformational heterogeneity of the Roc domains in C. tepidum Roc–COR and implications for human LRRK2 Parkinson mutations” (Bioscience Reports, 2015).

Tests used:
CtRocCOR [1] = molecular target: T1, CtRocCOR (Chlorobaculum tepidum, UniProt Q8KC98); assay: GTPase activity assay; assay type: biochemical
T1 construct: gene CT1526; RocCOR tandem, AA 412-946, recombinant, homodimer; MTSSL spin-labelled for EPR

CtRocCOR [2] = molecular target: T1, CtRocCOR; assay: DEER pulse EPR inter-spin distance change upon nucleotide binding; conditions: 1 mM GppNHp, 150 mM NaCl, 30 mM Tris/HCl, 5 mM MgCl2, pH 7.5, 5% glycerol, 50 K; protein spin-labelled with MTSSL at native Cys600 (C600R1)

T1 sequence (Q8KC98 entry or part of it): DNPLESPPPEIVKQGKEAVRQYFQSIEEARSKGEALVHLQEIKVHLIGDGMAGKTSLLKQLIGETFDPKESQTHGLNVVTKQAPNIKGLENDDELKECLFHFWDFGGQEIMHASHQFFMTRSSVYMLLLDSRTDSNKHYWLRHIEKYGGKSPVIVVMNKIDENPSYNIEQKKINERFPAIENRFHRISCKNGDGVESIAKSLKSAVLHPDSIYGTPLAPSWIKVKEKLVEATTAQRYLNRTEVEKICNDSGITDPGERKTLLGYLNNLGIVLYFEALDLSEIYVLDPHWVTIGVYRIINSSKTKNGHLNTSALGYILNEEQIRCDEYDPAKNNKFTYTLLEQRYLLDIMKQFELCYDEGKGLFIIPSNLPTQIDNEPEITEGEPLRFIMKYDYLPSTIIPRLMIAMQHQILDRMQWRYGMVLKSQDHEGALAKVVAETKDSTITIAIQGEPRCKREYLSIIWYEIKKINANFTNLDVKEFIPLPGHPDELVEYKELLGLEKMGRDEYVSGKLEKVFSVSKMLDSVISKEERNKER

Compound	GTPase activity assay (CtRocCOR [1])	DEER pulse EPR inter-spin distance change upon nucleotide binding (CtRocCOR [2])
Nc1nc2c(ncn2[C@@H]2O[C@H](COP(=O)(O)OP(=O)(O)OP(=O)(O)O)[C@@H](O)[C@H]2O)c(=O)[nH]1 [GTP]	No significant impairment of GTPase activity by the mutations in comparison with wild-type	
Nc1nc2c(ncn2[C@@H]2O[C@H](COP(=O)(O)OP(=O)(O)NP(=O)(O)O)[C@@H](O)[C@H]2O)c(=O)[nH]1 [GppNHp]		in the presence of GppNHp, GDP·AlFx or GDP (Figure 2c) reveal changes upon nt binding
